According to ChEMBL document CHEMBL3112458, “A biochemical screen for GroEL/GroES inhibitors” (Bioorg Med Chem Lett, 2014):
pIC50: −log10 of the molar value.

What was measured:
E. coli GroEL/ES [1] = target: T1, E. coli GroEL/ES (Escherichia coli, UniProt P0A6F5); assay: Inhibition of Escherichia coli GroEL/GroES expressed in Escherichia coli DH5alpha/BL21 (DE3) assessed as inhibition of denatured MDH refolding preincubated for 10 mins followed by ATP addition measured after 2 hrs by fluorescence based assay
E. coli GroEL/ES [2] = target: T1, E. coli GroEL/ES; assay: Inhibition of Escherichia coli GroEL/GroES-ATPase activity expressed in Escherichia coli DH5alpha/BL21 (DE3) assessed as inhibition of denatured MDH refolding preincubated for 10 mins followed by ATP addition measured after 2 hrs by fluorescence based assay
[3] = Inhibition of pig heart MDH using […] as substrate; design: species or system Sus scrofa

T1 sequence (P0A6F5 whole entry, looked up): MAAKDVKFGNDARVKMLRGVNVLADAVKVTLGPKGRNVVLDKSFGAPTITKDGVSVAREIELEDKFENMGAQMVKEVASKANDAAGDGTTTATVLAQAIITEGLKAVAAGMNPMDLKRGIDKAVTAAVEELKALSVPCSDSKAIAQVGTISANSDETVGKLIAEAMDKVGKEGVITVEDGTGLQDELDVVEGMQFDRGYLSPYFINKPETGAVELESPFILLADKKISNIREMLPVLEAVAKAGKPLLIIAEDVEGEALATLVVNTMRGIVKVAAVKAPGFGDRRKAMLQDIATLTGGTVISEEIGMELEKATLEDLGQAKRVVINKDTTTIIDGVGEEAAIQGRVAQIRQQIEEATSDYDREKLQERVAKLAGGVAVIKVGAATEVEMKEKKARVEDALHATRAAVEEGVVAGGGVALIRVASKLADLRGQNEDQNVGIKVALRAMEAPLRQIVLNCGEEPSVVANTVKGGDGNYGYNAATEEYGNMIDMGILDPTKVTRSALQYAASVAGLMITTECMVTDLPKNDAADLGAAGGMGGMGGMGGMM

Structure (SMILES) | pIC50 (E. coli GroEL/ES [1]) | pIC50 (E. coli GroEL/ES [2]) | pIC50 [3]
O=C1NC(=S)N(c2ccc(F)cc2)C(=O)/C1=C/c1ccco1 | 5.92 | 4.60 | 4.70
O=C(NCCO)Nc1ccc2nc(-c3ccco3)c(-c3ccco3)nc2c1 | 4.64 | < 3.60 | < 4.20
O=C(Nc1ccc2nc(-c3ccco3)c(-c3ccco3)nc2c1)N1CCCC1 | 4.85 | < 3.60 | < 4.20
O=C(Nc1ccc(Sc2nc3ccccc3s2)c(Cl)c1)c1cc(Br)cc(Br)c1O | 5.77 | 4.89 | 5.26
CNC(=O)Nc1ccc2nc(-c3ccco3)c(-c3ccco3)nc2c1 | 5.27 | < 3.60 | < 4.20
Oc1ccc(NCn2nnc3ccccc32)cc1 | 4.26 | 3.89 | < 4.20
Cc1ccc(C)n1-c1ccc(O)c(C(=O)O)c1 | 6.21 | < 3.60 | < 4.20
O=c1/c(=C/c2ccc(O)c(O)c2)sc2nc3ccccc3n12 | 5.89 | 5.01 | < 4.20
Nc1ccc(Nc2nc(-c3ccc(O)c(O)c3)cs2)cc1 | 5.23 | 4.64 | < 4.20
Cc1ccc(S(=O)(=O)Nc2ccc(-c3nc4ccc(NS(=O)(=O)c5ccc(C)cc5)cc4[nH]3)cc2)cc1 | 6.96 | 7.22 | < 4.20
O=C(O)c1ccc(-c2nc(-c3ccc(-c4ccc(-c5nc(-c6ccc(C(=O)O)cc6)[nH]c5-c5ccccc5)cc4)cc3)c(-c3ccccc3)[nH]2)cc1 | 6.36 | 4.60 | 4.24
O=C1NC(=S)N(Cc2ccco2)C(=O)/C1=C\c1ccc(-c2ccc([N+](=O)[O-])cc2)o1 | 6.15 | 3.82 | 4.72
O=C1/C(=C/c2ccc(O)c(O)c2)SC(=S)N1c1ccc(O)cc1 | 6.00 | 5.48 | < 4.20
O=C(/C=C/c1cccc([N+](=O)[O-])c1)c1ccc(NC(=O)c2ccco2)cc1 | 5.74 | < 3.60 | < 4.20
O=C(/C=C/c1ccc([N+](=O)[O-])cc1)c1ccc(O)c(O)c1 | 5.62 | 4.15 | < 4.20
O=C(O)c1cccc2c1NC(c1cccc(Br)c1)C1CC=CC21 (stereo not given) | 5.57 | 4.36 | 4.30
O=C(O)C1Nc2ccc(Cl)cc2C2C=CCC12 (stereo not given) | 5.57 | 4.17 | < 4.20
CN(C)c1ccc(/C=C2/C(=O)NC(=S)N(Cc3ccco3)C2=O)cc1 | 5.23 | 3.77 | < 4.20

Structure (SMILES) | pIC50 (E. coli GroEL/ES [1]) | pIC50 (E. coli GroEL/ES [2]) | pIC50 [3]
Cc1ccc(/C=C2/SC(=S)N(c3ccc(C(=O)O)c(O)c3)C2=O)o1 | 5.21 | 4.32 | < 4.20
Cn1c(=O)c(C(=O)Nc2ccncc2)c(O)c2ccccc21 | 5.14 | < 3.60 | < 4.20
COC(=O)c1ccc(-c2ccc(/C=C3/SC(=S)NC3=O)o2)cc1 | 5.08 | 3.88 | < 4.20
O=c1c([N+](=O)[O-])c(Cl)c2ccccc2n1Cc1ccccc1 | 5.06 | < 3.60 | < 4.20
O=C(O)c1cccc2c1NC(c1ccccc1F)C1CC=CC21 (stereo not given) | 5.04 | 4.02 | < 4.20
O=c1[nH]nc2cc(O)c3ccccc3n12 | 4.96 | < 3.60 | < 4.20
O=C(/C=C/c1ccco1)c1ccc(NC(=O)c2cccs2)cc1 | 4.77 | 3.80 | < 4.20
CCOc1ccc(N2C(=O)NC(=O)/C(=C/c3ccc(O)c(O)c3)C2=O)cc1 | 4.62 | 3.66 | < 4.20
COc1cccc(/C=C2/SC(=S)N(CCC(=O)Nc3ccc(O)cc3)C2=O)c1 | 4.48 | < 3.60 | < 4.20
CNC(=O)Oc1c(Br)cc2sc(=O)oc2c1Br | 4.46 | 3.63 | < 4.20
O=C(Nc1cc([N+](=O)[O-])ccc1O)c1ccc2c(c1)C(=O)N(Cc1ccccc1)C2=O | 4.28 | < 3.60 | < 4.20
COc1ccc(C(=O)N/N=C/c2ccc(O)c3ncccc23)cc1 | 4.15 | < 3.60 | < 4.20
O=C(CC1Nc2cccc3cccc(c23)NC1=O)Nc1cccc([N+](=O)[O-])c1 (stereo not given) | 4.01 | 4.28 | < 4.20
CC(=O)c1cc2c(cc1NC(=O)c1ccccc1Br)OCCO2 | < 4.00 | < 3.60 | < 4.20
COc1cc(/C=C2/C(=N)N3N=C(CC(C)C)SC3=NC2=O)ccc1OC(=O)c1ccc(F)cc1 | < 4.00 | < 3.60 | < 4.20
Nc1nnc(SCC(=O)c2ccc(-c3ccccc3)cc2)s1 | < 4.00 | < 3.60 | < 4.20
Cc1ccc(-c2ccc(NC(=O)/C=C/c3ccco3)cc2)o1 | < 4.00 | < 3.60 | < 4.20
